The NIST ThermoML archive (doi:10.1016/j.fluid.2017.09.014)
Numbers after ± are expanded uncertainties.

Assay: xn = mol fraction of the nth substance listed
Conditions: Vibrating tube method

O=S=O [sulfur dioxide] + O=C=O
Conditions	mass density [kg/m3]
298.1 K, 34441 kPa, Liquid, x2 = 0.9478	1013.3 ± 0.6
298.1 K, 35077 kPa, Liquid, x2 = 0.9478	1015.5 ± 0.4
298.1 K, 35971 kPa, Liquid, x2 = 0.9478	1018.4 ± 0.4
298.1 K, 36493 kPa, Liquid, x2 = 0.9478	1020.2 ± 0.6
298.1 K, 37078 kPa, Liquid, x2 = 0.9478	1022 ± 0.4
298.11 K, 7503 kPa, Liquid, x2 = 0.9478	829.8 ± 1.6
298.11 K, 8006 kPa, Liquid, x2 = 0.9478	838.7 ± 1.6
298.11 K, 8501 kPa, Liquid, x2 = 0.9478	846.7 ± 1.4
298.11 K, 10505 kPa, Liquid, x2 = 0.9478	872.1 ± 1.2
298.11 K, 11004 kPa, Liquid, x2 = 0.9478	877.7 ± 1.2
298.11 K, 13010 kPa, Liquid, x2 = 0.9478	897.8 ± 1
298.11 K, 13500 kPa, Liquid, x2 = 0.9478	902.3 ± 1
298.11 K, 15011 kPa, Liquid, x2 = 0.9478	915.2 ± 0.8
298.11 K, 15500 kPa, Liquid, x2 = 0.9478	919.1 ± 0.8
298.11 K, 16016 kPa, Liquid, x2 = 0.9478	923 ± 0.8
298.11 K, 16534 kPa, Liquid, x2 = 0.9478	926.8 ± 0.8
298.11 K, 17024 kPa, Liquid, x2 = 0.9478	930.2 ± 0.8
298.11 K, 17492 kPa, Liquid, x2 = 0.9478	933.3 ± 0.8
298.11 K, 17978 kPa, Liquid, x2 = 0.9478	936.5 ± 0.8
298.11 K, 18527 kPa, Liquid, x2 = 0.9478	939.8 ± 0.8
298.11 K, 19025 kPa, Liquid, x2 = 0.9478	942.9 ± 0.8
298.11 K, 19477 kPa, Liquid, x2 = 0.9478	945.6 ± 0.8
298.11 K, 20051 kPa, Liquid, x2 = 0.9478	948.9 ± 0.8
298.11 K, 20492 kPa, Liquid, x2 = 0.9478	951.5 ± 0.8
298.11 K, 21501 kPa, Liquid, x2 = 0.9478	957 ± 0.6
298.11 K, 23041 kPa, Liquid, x2 = 0.9478	965.2 ± 0.6
298.11 K, 28987 kPa, Liquid, x2 = 0.9478	993.1 ± 0.6
298.11 K, 29543 kPa, Liquid, x2 = 0.9478	994.8 ± 0.6
298.11 K, 30013 kPa, Liquid, x2 = 0.9478	996.8 ± 0.6
298.11 K, 30505 kPa, Liquid, x2 = 0.9478	998.9 ± 0.6
298.11 K, 30997 kPa, Liquid, x2 = 0.9478	1000.7 ± 0.4
298.11 K, 31516 kPa, Liquid, x2 = 0.9478	1002.6 ± 0.4
298.11 K, 33949 kPa, Liquid, x2 = 0.9478	1011.6 ± 0.4
298.11 K, 35494 kPa, Liquid, x2 = 0.9478	1016.9 ± 0.4
298.11 K, 37574 kPa, Liquid, x2 = 0.9478	1023.6 ± 0.4
298.11 K, 37960 kPa, Liquid, x2 = 0.9478	1024.8 ± 0.4
298.11 K, 38545 kPa, Liquid, x2 = 0.9478	1026.6 ± 0.6
298.11 K, 38913 kPa, Liquid, x2 = 0.9478	1027.8 ± 0.6
298.11 K, 39519 kPa, Liquid, x2 = 0.9478	1029.5 ± 0.4
298.11 K, 40060 kPa, Liquid, x2 = 0.9478	1031.1 ± 0.6
298.12 K, 9508 kPa, Liquid, x2 = 0.9478	860.5 ± 1.2
298.12 K, 10039 kPa, Liquid, x2 = 0.9478	866.6 ± 1.2
298.12 K, 11504 kPa, Liquid, x2 = 0.9478	882.9 ± 1
298.12 K, 12000 kPa, Liquid, x2 = 0.9478	887.9 ± 1
298.12 K, 12503 kPa, Liquid, x2 = 0.9478	892.9 ± 1
298.12 K, 14006 kPa, Liquid, x2 = 0.9478	906.7 ± 1
298.12 K, 14500 kPa, Liquid, x2 = 0.9478	910.9 ± 1
298.12 K, 40411 kPa, Liquid, x2 = 0.9478	1032.1 ± 0.4
322.39 K, 392 kPa, Gas, x2 = 0.9503	7 ± 0.2
322.39 K, 1252 kPa, Gas, x2 = 0.9503	22.2 ± 0.2
322.39 K, 1707 kPa, Gas, x2 = 0.9503	31.7 ± 0.2
322.39 K, 2008 kPa, Gas, x2 = 0.9503	37 ± 0.2
322.39 K, 3512 kPa, Gas, x2 = 0.9503	70.9 ± 0.2
322.39 K, 4009 kPa, Gas, x2 = 0.9503	82.8 ± 0.4
322.39 K, 4519 kPa, Gas, x2 = 0.9503	96.9 ± 0.4
322.39 K, 5017 kPa, Gas, x2 = 0.9503	111.5 ± 0.4
322.39 K, 5528 kPa, Gas, x2 = 0.9503	127.9 ± 0.4
322.39 K, 6019 kPa, Gas, x2 = 0.9503	145.7 ± 0.4
322.39 K, 7009 kPa, Fluid (supercritical or subcritical phases), x2 = 0.9503	189.5 ± 0.8
322.39 K, 7504 kPa, Fluid (supercritical or subcritical phases), x2 = 0.9503	218.4 ± 1
322.4 K, 749 kPa, Gas, x2 = 0.9503	13.6 ± 0.2
322.4 K, 1002 kPa, Gas, x2 = 0.9503	17.9 ± 0.2
322.4 K, 1509 kPa, Gas, x2 = 0.9503	27.5 ± 0.2
322.4 K, 2511 kPa, Gas, x2 = 0.9503	48.1 ± 0.2
322.4 K, 3008 kPa, Gas, x2 = 0.9503	58.8 ± 0.2
322.41 K, 6514 kPa, Fluid (supercritical or subcritical phases), x2 = 0.9503	166.3 ± 0.6
322.41 K, 8037 kPa, Fluid (supercritical or subcritical phases), x2 = 0.9503	254.6 ± 1.5
322.41 K, 8521 kPa, Fluid (supercritical or subcritical phases), x2 = 0.9503	307.2 ± 2.3
322.41 K, 9006 kPa, Fluid (supercritical or subcritical phases), x2 = 0.9503	371 ± 3.9
322.45 K, 9501 kPa, Fluid (supercritical or subcritical phases), x2 = 0.9503	460.8 ± 5.1
322.46 K, 9992 kPa, Fluid (supercritical or subcritical phases), x2 = 0.9503	538 ± 4.1
322.46 K, 30511 kPa, Fluid (supercritical or subcritical phases), x2 = 0.9503	905.8 ± 0.6
322.46 K, 34988 kPa, Fluid (supercritical or subcritical phases), x2 = 0.9503	930.2 ± 0.6
322.46 K, 35500 kPa, Fluid (supercritical or subcritical phases), x2 = 0.9503	933 ± 0.6
322.46 K, 36061 kPa, Fluid (supercritical or subcritical phases), x2 = 0.9503	935.4 ± 0.6
322.46 K, 36509 kPa, Fluid (supercritical or subcritical phases), x2 = 0.9503	937.7 ± 0.6
322.46 K, 37005 kPa, Fluid (supercritical or subcritical phases), x2 = 0.9503	940.1 ± 0.6
322.46 K, 37561 kPa, Fluid (supercritical or subcritical phases), x2 = 0.9503	942.4 ± 0.6
322.47 K, 10501 kPa, Fluid (supercritical or subcritical phases), x2 = 0.9503	585 ± 5.5
322.47 K, 29929 kPa, Fluid (supercritical or subcritical phases), x2 = 0.9503	902.4 ± 0.6
322.47 K, 31027 kPa, Fluid (supercritical or subcritical phases), x2 = 0.9503	908.9 ± 0.6
322.47 K, 31517 kPa, Fluid (supercritical or subcritical phases), x2 = 0.9503	912 ± 0.6
322.47 K, 32536 kPa, Fluid (supercritical or subcritical phases), x2 = 0.9503	917.5 ± 0.6
322.47 K, 33070 kPa, Fluid (supercritical or subcritical phases), x2 = 0.9503	920.6 ± 0.6
322.47 K, 33539 kPa, Fluid (supercritical or subcritical phases), x2 = 0.9503	923.2 ± 0.6
322.47 K, 34062 kPa, Fluid (supercritical or subcritical phases), x2 = 0.9503	925.5 ± 0.6
322.47 K, 34511 kPa, Fluid (supercritical or subcritical phases), x2 = 0.9503	928 ± 0.6
322.47 K, 38091 kPa, Fluid (supercritical or subcritical phases), x2 = 0.9503	945 ± 0.6
322.47 K, 38434 kPa, Fluid (supercritical or subcritical phases), x2 = 0.9503	946.6 ± 0.6
322.47 K, 39200 kPa, Fluid (supercritical or subcritical phases), x2 = 0.9503	950 ± 0.6
322.47 K, 40947 kPa, Fluid (supercritical or subcritical phases), x2 = 0.9503	956.3 ± 0.6
322.48 K, 20496 kPa, Fluid (supercritical or subcritical phases), x2 = 0.9503	829.2 ± 1.1
322.48 K, 23049 kPa, Fluid (supercritical or subcritical phases), x2 = 0.9503	853.3 ± 0.9
322.48 K, 25500 kPa, Fluid (supercritical or subcritical phases), x2 = 0.9503	871.4 ± 0.8
322.48 K, 27026 kPa, Fluid (supercritical or subcritical phases), x2 = 0.9503	882.9 ± 0.8
322.48 K, 28501 kPa, Fluid (supercritical or subcritical phases), x2 = 0.9503	892.7 ± 0.8
322.48 K, 32039 kPa, Fluid (supercritical or subcritical phases), x2 = 0.9503	914.6 ± 0.6
322.48 K, 39641 kPa, Fluid (supercritical or subcritical phases), x2 = 0.9503	951.7 ± 0.6
322.48 K, 40153 kPa, Fluid (supercritical or subcritical phases), x2 = 0.9503	953.9 ± 0.6
322.48 K, 40902 kPa, Fluid (supercritical or subcritical phases), x2 = 0.9503	956.7 ± 0.6
322.49 K, 11003 kPa, Fluid (supercritical or subcritical phases), x2 = 0.9503	621.1 ± 4.3
322.49 K, 18008 kPa, Fluid (supercritical or subcritical phases), x2 = 0.9503	800.3 ± 1.3
322.49 K, 19008 kPa, Fluid (supercritical or subcritical phases), x2 = 0.9503	812.8 ± 1.1
322.49 K, 20012 kPa, Fluid (supercritical or subcritical phases), x2 = 0.9503	824.3 ± 1.1
322.49 K, 21007 kPa, Fluid (supercritical or subcritical phases), x2 = 0.9503	834.7 ± 1.1
322.49 K, 21533 kPa, Fluid (supercritical or subcritical phases), x2 = 0.9503	839.7 ± 1.1
322.49 K, 22009 kPa, Fluid (supercritical or subcritical phases), x2 = 0.9503	843.9 ± 0.9
322.49 K, 22496 kPa, Fluid (supercritical or subcritical phases), x2 = 0.9503	848.2 ± 0.9
322.49 K, 23500 kPa, Fluid (supercritical or subcritical phases), x2 = 0.9503	856.5 ± 0.9
322.49 K, 24003 kPa, Fluid (supercritical or subcritical phases), x2 = 0.9503	860.4 ± 0.9
